Assays:
[1] = molecular target: T1, hemoglobin (normal human adult blood) (Homo sapiens, UniProt P68871+P69905); experiment: Time-dependent oxygen equilibrium curve (OEC) studies in normal whole blood; type: cell-based; conditions: 2 mM compound, 2% DMSO, normal human blood 20% hematocrit, 37° C., 1 h
T1 construct: Normal whole blood was collected from adult healthy donors; from tissue; host or cells: normal human whole blood (red blood cells), adult healthy donors
Protocol: (§1) Materials: Normal whole blood was collected from adult healthy donors at the Virginia Commonwealth University after informed consent. The use of these human samples is in accordance with regulations of the IRB for Protection of Human Subjects. Compounds (50 mM-100 mM concentration in DMSO) were stored at 15° C. or room temperature until use.
The time-dependent OEC studies were conducted on normal human adult blood samples with hematocrit value of 20% in the absence or presence of effectors solubilized in DMSO at final drug and DMSO concentrations of 2 mM and 2%, respectively. […] The mixture was further incubated at 37° C. with shaking. […] After equilibration, the sample was removed by syringe and aspirated into a ABL 700 series table top automated blood gas analyzer (Radiometer America, Inc., Westlake, Ohio) to determine values of total hemoglobin (tHb), methemoglobin (metHb), hematocrit (Hct), pH, partial pressure of oxygen (pO2), and Hb oxygen saturation values (sO2). The measured values of sO2 and pO2 at each partial pressure of oxygen are then subjected to a non-linear regression analysis using the program Scientist (Micromath, Salt Lake City, Utah) with the following equation: […]
This equation was used to calculate P50 and Hill coefficient (N) values. Corresponding control experiments without the test compound (P50control) but containing DMSO were also performed. GBT440 was used as a positive control.

[2] = molecular target: T2, hemoglobin (20% hct blood) (Homo sapiens, UniProt P68871+P69905); experiment: Dose-dependent whole blood OEC studies; type: cell-based; conditions: 37° C., 1 hr; for delta p50 0.2 mM: 0.2 mM compound; for delta p50 0.5 mM: 0.5 mM compound
T2 construct: Normal whole blood was collected from adult healthy donors; from tissue; host or cells: normal human whole blood (red blood cells), adult healthy donors
T2 sequence (P69905 2-142 limits assumed): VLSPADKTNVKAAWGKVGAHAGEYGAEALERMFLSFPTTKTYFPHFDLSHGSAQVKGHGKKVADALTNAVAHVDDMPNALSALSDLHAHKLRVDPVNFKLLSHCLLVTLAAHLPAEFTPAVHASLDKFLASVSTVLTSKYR
T2 sequence (P68871 2-147 limits assumed): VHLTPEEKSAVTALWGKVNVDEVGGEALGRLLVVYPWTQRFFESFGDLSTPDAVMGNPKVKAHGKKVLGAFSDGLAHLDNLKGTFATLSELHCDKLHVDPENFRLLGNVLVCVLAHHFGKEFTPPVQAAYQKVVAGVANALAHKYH
Protocol: as §1
To 2 ml 20% hct blood, 0.2 or 0.5 or 1 mM compound was added and kept shaking at 37° C. for 1 hr. OEC analysis was performed as described above to determine partial pressure of oxygen (pO2) and Hb oxygen saturation values (sO2). A control without compound but containing equivalent amount of DMSO was performed (1%). GBT440 was used as a positive control. Table 2 below lists the delta p50% values.

T1 sequence (P69905 2-142 limits assumed): as the sequence (P69905 2-142 limits assumed) above
T1 sequence (P68871 2-147 limits assumed): as the sequence (P68871 2-147 limits assumed) above

CC(C)n1nccc1-c1ncccc1COc1ccc2c(c1C=O)CCO2 [Example 2, 5-((2-(1-isopropyl-1H-pyrazol-5-yl)pyridin-3-yl)methoxy)-2,3-dihydrobenzofuran-4-carbaldehyde]
delta p50 [1]: −78%

CC(C)n1nccc1-c1ncccc1COc1cc2c(cc1C=O)OCC2 [Example 3, 5-((2-(1-isopropyl-1H-pyrazol-5-yl)pyridin-3-yl)methoxy)-2,3-dihydrobenzofuran-6-carbaldehyde]
delta p50 [1]: −62%

CC(C)n1nccc1-c1ncccc1COc1ccc2c(c1C=O)OCC2 [Example 4, 6-((2-(1-isopropyl-1H-pyrazol-5-yl)pyridin-3-yl)methoxy)-2,3-dihydrobenzofuran-7-carbaldehyde]
delta p50 [1]: −51%

CC(C)n1nccc1-c1ncccc1COc1ccc2ccoc2c1C=O [Example 5, 6-((2-(1-isopropyl-1H-pyrazol-5-yl)pyridin-3-yl)methoxy)benzofuran-7-carbaldehyde]
delta p50 [1]: −77%

CC(C)n1nccc1-c1ncccc1COc1ccc2c(c1C=O)OCO2 [Example 6, 5-((2-(1-isopropyl-1H-pyrazol-5-yl)pyridin-3-yl)methoxy)benzo[d][1,3]dioxole-4-carbaldehyde]
delta p50 [1]: −66%

CC(C)n1nccc1-c1ncccc1COc1ccc2c(c1C=O)OCCO2 [Example 7, 6-((2-(1-isopropyl-1H-pyrazol-5-yl)pyridin-3-yl)methoxy)-2,3-dihydrobenzo[b][1,4]dioxine-5-carbaldehyde]
delta p50 [1]: −59%

CC(C)n1nccc1-c1ncccc1COc1ccc2c(c1C=O)OC(F)(F)O2 [Example 8, 2,2-difluoro-5-((2-(1-isopropyl-1H-pyrazol-5-yl)pyridin-3-yl)methoxy)benzo[d][1,3]dioxole-4-carbaldehyde]
delta p50 [1]: −68%

CC(C)n1nccc1-c1ncccc1COc1ccc2c(c1C=O)C(O)C(F)(F)O2 (stereo not drawn) [Example 9, 2,2-difluoro-3-hydroxy-5-((2-(1-isopropyl-1H-pyrazol-5-yl)pyridin-3-yl)methoxy)-2,3-dihydrobenzofuran-4-carbaldehyde]
delta p50 [1]: −64%

CC(C)n1nccc1-c1ncccc1COc1ccc2c(c1C=O)C(O)C(F)(F)C2 (stereo not drawn) [Example 10, 2,2-difluoro-3-hydroxy-5-((2-(1-isopropyl-1H-pyrazol-5-yl)pyridin-3-yl)methoxy)-2,3-dihydro-1H-indene-4-carbaldehyde]
delta p50 [1]: −68%

CC(C)n1nccc1-c1ncccc1COc1ccn2nnnc2c1C=O [Example 13, 7-((2-(1-isopropyl-1H-pyrazol-5-yl)pyridin-3-yl)methoxy)tetrazolo[1,5-a]pyridine-8-carbaldehyde]
delta p50 [1]: −9%

CC(C)n1nccc1-c1ncccc1COc1ccc2ocnc2c1C=O [Example 14, 5-((2-(1-isopropyl-1H-pyrazol-5-yl)pyridin-3-yl)methoxy)benzo[d]oxazole-4-carbaldehyde]
delta p50 [1]: −63%

CC(C)n1nccc1-c1ncccc1COc1ccc2ncoc2c1C=O [Example 15, 6-((2-(1-isopropyl-1H-pyrazol-5-yl)pyridin-3-yl)methoxy)benzo[d]oxazole-7-carbaldehyde]
delta p50 [1]: −81%

CC(C)n1nccc1-c1ncccc1COc1ccc2sccc2c1C=O [Example 20, 5-((2-(1-isopropyl-1H-pyrazol-5-yl)pyridin-3-yl)methoxy)benzo[b]thiophene-4-carbaldehyde]
delta p50 [1]: −74%

CC(C)n1nccc1-c1ncccc1COc1ccc2c(c1C=O)CCS2(=O)=O [Example 21, 5-((2-(1-isopropyl-1H-pyrazol-5-yl)pyridin-3-yl)methoxy)-2,3-dihydrobenzo[b]thiophene-4-carbaldehyde 1,1-dioxide]
delta p50 [1]: −72%

CC(C)n1nccc1-c1ncccc1CSc1cccc(O)c1C=O [Example 23, 2-hydroxy-6-(((2-(1-isopropyl-1H-pyrazol-5-yl)pyridin-3-yl)methyl)thio)benzaldehyde]
delta p50 [1]: −62%

[2H]C(=O)c1c(O)cccc1OCc1cccnc1-c1ccnn1C(C)C [Example 24]
delta p50 [1]: −47%

[2H]C([2H])([2H])C(n1nccc1-c1ncccc1COc1cccc(O)c1C=O)C([2H])([2H])[2H] [Example 30, 2-hydroxy-6-((2-(1-(propan-2-yl-1,1,1,3,3,3-d6)-1H-pyrazol-5-yl)pyridin-3-yl)methoxy)benzaldehyde]
delta p50 [1]: −85%

CC(C)n1nccc1-c1ncncc1COc1ccc2cccnc2c1C=O [Example 55, 7-((4-(1-isopropyl-1H-pyrazol-5-yl)pyrimidin-5-yl)methoxy)quinoline-8-carbaldehyde]
delta p50 0.2 mM [2]: −5.30%
delta p50 0.5 mM [2]: −8.80%

CC(C)n1nccc1-c1ncncc1COc1ccc2cccnc2c1C=O [Example 56, 7-((4-(1-isopropyl-1H-pyrazol-5-yl)pyrimidin-5-yl)methoxy)quinoline-8-carbaldehyde]
delta p50 0.2 mM [2]: −1.60%
delta p50 0.5 mM [2]: −11.30%

CC(C)n1ncc(F)c1-c1ncncc1COc1cccc(O)c1C=O [Example 57, 2-((4-(4-fluoro-1-isopropyl-1H-pyrazol-5-yl)pyrimidin-5-yl)methoxy)-6-hydroxybenzaldehyde]
delta p50 0.2 mM [2]: −4.90%
delta p50 0.5 mM [2]: −7.60%

CC(C)n1nccc1-c1cccnc1COc1ccc2ncoc2c1C=O [Example 58, 6-((3-(1-isopropyl-1H-pyrazol-5-yl)pyridin-2-yl)methoxy)benzo[d]oxazole-7-carbaldehyde]
delta p50 0.2 mM [2]: −14.30%
delta p50 0.5 mM [2]: −34.30%

CC(C)n1nccc1-c1nn(C)c(=O)cc1COc1cccc(O)c1C=O [Example 59, 2-hydroxy-6-((3-(1-isopropyl-1H-pyrazol-5-yl)-1-methyl-6-oxo-1,6-dihydropyridazin-4-yl)methoxy)benzaldehyde]
delta p50 [1]: −54%

CC(C)n1nccc1-c1c(COc2cccc(O)c2C=O)ncn1C [Example 63, 2-hydroxy-6-((5-(1-isopropyl-1H-pyrazol-5-yl)-1-methyl-1H-imidazol-4-yl)methoxy)benzaldehyde]
delta p50 0.2 mM [2]: −7.00%
delta p50 0.5 mM [2]: −15.20%

CC(C)n1nccc1-c1scnc1COc1cccc(O)c1C=O [Example 64, 2-hydroxy-6-((5-(1-isopropyl-1H-pyrazol-5-yl)thiazol-4-yl)methoxy)benzaldehyde]
delta p50 0.2 mM [2]: −10.00%
delta p50 0.5 mM [2]: −31.00%

CC(C)n1nccc1-c1ncsc1COc1cccc(O)c1C=O [Example 65, 2-hydroxy-6-((4-(1-isopropyl-1H-pyrazol-5-yl)thiazol-5-yl)methoxy)benzaldehyde]
delta p50 0.2 mM [2]: −11.20%
delta p50 0.5 mM [2]: −36.20%

CC(C)n1nccc1-c1ocnc1COc1cccc(O)c1C=O [Example 66, 2-hydroxy-6-((5-(1-isopropyl-1H-pyrazol-5-yl)oxazol-4-yl)methoxy)benzaldehyde]
delta p50 0.2 mM [2]: −5.70%
delta p50 0.5 mM [2]: −16.50%

CC(C)n1nccc1-c1ncoc1COc1cccc(O)c1C=O [Example 67, 2-hydroxy-6-((4-(1-isopropyl-1H-pyrazol-5-yl)oxazol-5-yl)methoxy)benzaldehyde]
delta p50 0.2 mM [2]: −6.80%
delta p50 0.5 mM [2]: −25.30%

Cc1nc(COc2cccc(O)c2C=O)c(-c2ccnn2C(C)C)o1 [Example 68, 2-hydroxy-6-((5-(1-isopropyl-1H-pyrazol-5-yl)-2-methyloxazol-4-yl)methoxy)benzaldehyde]
delta p50 0.2 mM [2]: −8.70%
delta p50 0.5 mM [2]: −13.00%

CC(C)n1nccc1-c1ncn(C)c1COc1cccc(O)c1C=O [Example 69, 2-hydroxy-6-((4-(1-isopropyl-1H-pyrazol-5-yl)-1-methyl-1H-imidazol-5-yl)methoxy)benzaldehyde]
delta p50 0.2 mM [2]: −21.40%
delta p50 0.5 mM [2]: −41.80%

Cc1nc(-c2ccnn2C(C)C)c(COc2cccc(O)c2C=O)s1 [Example 70, 2-hydroxy-6-((4-(1-isopropyl-1H-pyrazol-5-yl)-2-methylthiazol-5-yl)methoxy)benzaldehyde]
delta p50 0.2 mM [2]: −10.40%
delta p50 0.5 mM [2]: −21.90%

[2H]C([2H])(Oc1cccc(O)c1C=O)c1nccnc1-n1ccnc1C(C)C [Example 72, 2-hydroxy-6-((3-(2-isopropyl-1H-imidazol-1-yl)pyrazin-2-yl)methoxy-d2)benzaldehyde]
delta p50 0.2 mM [2]: −5.10%
delta p50 0.5 mM [2]: −16.80%

CC(C)n1nccc1-c1nccc(F)c1COc1cccc(O)c1C=O [Example 74, 2-((4-fluoro-2-(1-isopropyl-1H-pyrazol-5-yl)pyridin-3-yl)methoxy)-6-hydroxybenzaldehyde]
delta p50 0.2 mM [2]: −15.8%
delta p50 0.5 mM [2]: −48.4%

[2H]C([2H])(Oc1cccc(O)c1C=O)c1c(F)ccnc1-c1ccnn1C(C)C [Example 75, 2-((4-fluoro-2-(1-isopropyl-1H-pyrazol-5-yl)pyridin-3-yl)methoxy-d2)-6-hydroxybenzaldehyde]
delta p50 0.2 mM [2]: −13.0%
delta p50 0.5 mM [2]: −53.7%

From patent publication US10787430B2, “Hemoglobin modifier compounds and uses thereof” (FronThera U.S. Pharmaceuticals LLC, priority 2016, dated 2020)
